Measured values: the supplement of paper PMC4862054

Assays:
Conditions in all cases: incubation time: 72 h
HCC1599 [1] = assay: normalised response (% of control), CellTiter-Glo; higher = more viable cells (100 = DMSO, 0 = benzethonium chloride kill control)
Procedure: (§1)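 DSRT, 72 h incubation, CellTox Green / CellTiter-Glo readout. Signal is normalised to DMSO and benzethonium chloride controls. Value is the normalised response at dose 3.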

CAL-120 [2] = assay: as above
Procedure: as §1

MCF-10A [3] = assay: as above
Procedure: as §1

MDA-MB-436 [4] = assay: as above
Procedure: as §1

HCC1937 [5] = assay: as above
Procedure: as §1

MDA-MB-468 [6] = assay: as above
Procedure: as §1

CAL-51 [7] = assay: as above
Procedure: as §1

BT-474 [8] = assay: as above
Procedure: as §1

Hs578T [9] = assay: as above
Procedure: as §1

HDQ-P1 [10] = assay: as above
Procedure: as §1

SK-BR-3 = assay: as above
Procedure: as §1

DU-4475 [11] = assay: as above
Procedure: as §1

MFM-223 [12] = assay: as above
Procedure: as §1

CAL-85-1 [13] = assay: as above
Procedure: as §1

MDA-MB-231 [14] = assay: as above
Procedure: as §1

CAL-148 [15] = assay: as above
Procedure: as §1

BT-549 [16] = assay: as above
Procedure: as §1

MDA-MB-453 [17] = assay: as above
Procedure: as §1

HCC1143 [18] = assay: as above
Procedure: as §1

HCC1599 [19] = assay: normalised response (% of control), CellTox Green; higher = less cell death (100 = DMSO, 0 = benzethonium chloride kill control)
In short: (§2)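 The table gives the normalised signal for a single concentration in each entry. Breast cancer cell lines were seeded (20 µl suspension) into 384-well plates holding compound at 5 concentrations in 10-fold steps over a compound-specific 10,000-fold range and incubated 72 h, then read for CellTox Green fluorescence (485/520 nm) and CellTiter-Glo luminescence. Normalisation on each plate used 0.1 % DMSO (100) and a positive kill control (0).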

CAL-120 [20] = assay: as above
In short: as §2

MCF-10A [21] = assay: as above
In short: as §2

MDA-MB-436 [22] = assay: as above
In short: as §2

HCC1937 [23] = assay: as above
In short: as §2

CAL-51 [24] = assay: as above
In short: as §2

BT-474 [25] = assay: as above
In short: as §2

Hs578T [26] = assay: as above
In short: as §2

HDQ-P1 [27] = assay: as above
In short: as §2

DU-4475 [28] = assay: as above
In short: as §2

MFM-223 [29] = assay: as above
In short: as §2

CAL-85-1 [30] = assay: as above
In short: as §2

MDA-MB-231 [31] = assay: as above
In short: as §2

CAL-148 [32] = assay: as above
In short: as §2

BT-549 [33] = assay: as above
In short: as §2

MDA-MB-453 [34] = assay: as above
In short: as §2

HCC1143 [35] = assay: as above
In short: as §2

MDA-MB-468 [36] = assay: as above
In short: as §2

SMILES | normalised response (HCC1599 [1]) [%] | normalised response (CAL-120 [2]) [%] | normalised response (MCF-10A [3]) [%] | normalised response (MDA-MB-436 [4]) [%] | normalised response (HCC1937 [5]) [%] | normalised response (MDA-MB-468 [6]) [%] | normalised response (CAL-51 [7]) [%] | normalised response (BT-474 [8]) [%] | normalised response (Hs578T [9]) [%] | normalised response (HDQ-P1 [10]) [%] | normalised response (SK-BR-3) [%] | normalised response (DU-4475 [11]) [%] | normalised response (MFM-223 [12]) [%] | normalised response (CAL-85-1 [13]) [%] | normalised response (MDA-MB-231 [14]) [%] | normalised response (CAL-148 [15]) [%] | normalised response (BT-549 [16]) [%] | normalised response (MDA-MB-453 [17]) [%] | normalised response (HCC1143 [18]) [%] | normalised response (HCC1599 [19]) [%] | normalised response (CAL-120 [20]) [%] | normalised response (MCF-10A [21]) [%] | normalised response (MDA-MB-436 [22]) [%] | normalised response (HCC1937 [23]) [%] | normalised response (CAL-51 [24]) [%] | normalised response (BT-474 [25]) [%] | normalised response (Hs578T [26]) [%] | normalised response (HDQ-P1 [27]) [%] | normalised response (DU-4475 [28]) [%] | normalised response (MFM-223 [29]) [%] | normalised response (CAL-85-1 [30]) [%] | normalised response (MDA-MB-231 [31]) [%] | normalised response (CAL-148 [32]) [%] | normalised response (BT-549 [33]) [%] | normalised response (MDA-MB-453 [34]) [%] | normalised response (HCC1143 [35]) [%] | normalised response (MDA-MB-468 [36]) [%]
O=C(CCCCCCC(=O)Nc1ccccc1)NO [Vorinostat] (100 nM) | 113 | 96.1 | 101 | 97 | 97.7 | 110 | 69.6 | 96.2 | 98.2 | 97.1 | 94.5 | 99.6 | 97.8 | 105 | 93.6 | 108 | 100 | 101 | 98.8 | 95.5 | 90.8 | 91.4 | 74.1 | 102 | 86.3 | 71.5 | 108 | 102 | 97.7 | 99.6 | 94.8 | 92.3 | 102 | 96.8 | 102 | 109 | –
CCN(CC)CCCC(C)Nc1ccnc2cc(Cl)ccc12 (stereo not drawn) [Chloroquine] (1000 nM) | 97 | 110 | 94.4 | 108 | 90.6 | 83.1 | 78.1 | 101 | 96 | 103 | 82.9 | 93 | 93.4 | 102 | 98.1 | 86.9 | 103 | 81.3 | 97.4 | 97.9 | 103 | 86.3 | 85 | 102 | 85.5 | 79.8 | 99.3 | 88.4 | 99.9 | 87.7 | 110 | 98 | 104 | 105 | 96.3 | 109 | –
CO[C@@H]1[C@H](N(C)C(=O)c2ccccc2)C[C@H]2O[C@]1(C)n1c3ccccc3c3c4c(c5c6ccccc6n2c5c31)C(=O)NC4 [Midostaurin] (100 nM) | 99.6 | 88.5 | 68.7 | 102 | 85.5 | 92.4 | 89.7 | 85.3 | 83.3 | 95.9 | 98.4 | 96.9 | 98.8 | 99 | 85.8 | 114 | 93.4 | 94.3 | 95.3 | 94.5 | 74.9 | 108 | 93.9 | – | 74.1 | 96.4 | 67 | 103 | 94.6 | 103 | 95.8 | 91.2 | 97.8 | 88.8 | 102 | 88.6 | 137
